Counter-ions that a name gives are not always drawn.
Structure (SMILES): O=[N+]([O-])c1ccc2c(c1)C1CCC2CNC1 (stereo not shown) (as salt: hydrochloride)
- melting point: 252 °C
